The text below walks through data of patent US20260130850A1, “TRANSDERMAL DELIVERY FORMULATIONS AND METHODS FOR THE MANUFACTURE THEREOF” (LIFEACTIVE, INC., priority 2023, published 2026).

As usually defined, the pKa is the pH at which an ionisable group is half protonated.

Data set [1] is described as follows: Acidic dissociation constants (pKa) of strong and weak organic acids. It is filed as physicochemical. Particulars: water; in H2O at ~15-20° C.; Table 2 weak organic acids; read-out: Median pKa.
Excerpt: As used herein, the term “pKa” refers to acid dissociation constant (Ka) of a solution. […] The quantitative behavior of acids and bases in solution can be understood only if their pKa values are known. pKa describes the acidity of a particular molecule. It measures the strength of an acid by how tightly a proton is held by a Bronsted acid. The lower the value of pKa, the stronger the acid and the greater its ability to donate its protons. describe the acidity of a particular molecule Ka denotes the acid dissociation constant. It measures how completely an acid dissociates in an aqueous solution. The larger the value of Ka, the stronger the acid as acid largely dissociates into its ions and has lower pKa value.
For data set [2] the following is noted: in H2O at ~15-20° C.; Table 2 weak organic acids; cited from earlier work.

For the molecule `O=c1[nH]c(=O)c2[nH]c(=O)[nH]c2[nH]1` [Uric Acid], the pKa in data set [1] was 5.6. The pKa1 in data set [2] was 5.6.

Citric Acid: the pKa3 in data set [2] is listed as 6.40.
